From ChEMBL document CHEMBL1130320, “Hypoxia-selective antitumor agents. 15. Modification of rate of nitroreduction and extent of lysosomal uptake by polysubstitution of 4-(alkylamino)-5-nitroquinoline bioreductive drugs” (J Med Chem, 1997)

system: CHO-AA8; experiment: cells; details: Cricetulus griseus, CHO-AA8, 18 h
Description: Growth inhibition of aerobic AA8 cells, after 18 hours exposure

Compound | IC50 [µM]
COc1ccc([N+](=O)[O-])c2c(NCCCN(C)C)c(C)c(C)nc12 | 166
Cc1cnc2c(C)ccc([N+](=O)[O-])c2c1NCCCN(C)C | 277
Cc1ccc([N+](=O)[O-])c2c(NCC(O)CO)ccnc12 (configuration not stated) | 110
CN(C)CCNC(=O)c1ccc(NNc2ccnc3cccc([N+](=O)[O-])c23)cc1 | 13
O=[N+]([O-])c1cccc2nccc(NCC(O)CO)c12 (configuration not stated) | 33
Cc1nc2c(C)ccc([N+](=O)[O-])c2c(NCCCN(C)C)c1C | 113
O=[N+]([O-])c1cccc2nccc(NCCCO)c12 | 26
O=[N+]([O-])c1cccc2nccc(NCCN3CCOCC3)c12 | 18
Cc1nc2cccc([N+](=O)[O-])c2c(NCCCN(C)C)c1C | 47
Cc1ccc([N+](=O)[O-])c2c(NCCCN(C)C)cc(-c3ccccc3)nc12 | 12
Cc1cc(C)c2nccc(NCCCN(C)C)c2c1[N+](=O)[O-] | 74
CCc1ccc2nccc(NCCCN(C)C)c2c1[N+](=O)[O-] | 108
COc1ccc([N+](=O)[O-])c2c(NCC(O)CO)ccnc12 (configuration not stated) | 50
CCCCNc1ccnc2cccc([N+](=O)[O-])c12 | 9.6
Cc1cnc2ccc(C)c([N+](=O)[O-])c2c1NCCCN(C)C | 201
COc1cc(OC)c2nccc(NCCCN(C)C)c2c1[N+](=O)[O-] | 186

system: not listed separately; experiment: physchem; details: aqueous solution
Description: Pka was determined in aqueous solution

pKa | Compound
5.08 | CN(C)CCNC(=O)c1ccc(NNc2ccnc3cccc([N+](=O)[O-])c23)cc1
6.07 | Cc1cnc2ccc(C)c([N+](=O)[O-])c2c1NCCCN(C)C

system: not listed separately; experiment: physchem; details: aqueous solution; remark: another data set of the same source
Description: Affinity constant determined in aqueous solution

pKa | Compound
6.64 | COc1ccc([N+](=O)[O-])c2c(NCCCN(C)C)c(C)c(C)nc12
6.1 | Cc1cnc2c(C)ccc([N+](=O)[O-])c2c1NCCCN(C)C
7.2 | Cc1ccc([N+](=O)[O-])c2c(NCC(O)CO)ccnc12 (configuration not stated)
6.81 | O=[N+]([O-])c1cccc2nccc(NCC(O)CO)c12 (configuration not stated)
6.67 | Cc1nc2c(C)ccc([N+](=O)[O-])c2c(NCCCN(C)C)c1C
7.06 | O=[N+]([O-])c1cccc2nccc(NCCCO)c12
6.78 | O=[N+]([O-])c1cccc2nccc(NCCN3CCOCC3)c12
6.64 | Cc1nc2cccc([N+](=O)[O-])c2c(NCCCN(C)C)c1C
5.43 | Cc1ccc([N+](=O)[O-])c2c(NCCCN(C)C)cc(-c3ccccc3)nc12
6.37 | Cc1cc(C)c2nccc(NCCCN(C)C)c2c1[N+](=O)[O-]
6.2 | CCc1ccc2nccc(NCCCN(C)C)c2c1[N+](=O)[O-]
7.1 | COc1ccc([N+](=O)[O-])c2c(NCC(O)CO)ccnc12 (configuration not stated)
7.18 | CCCCNc1ccnc2cccc([N+](=O)[O-])c12
6.25 | COc1cc(OC)c2nccc(NCCCN(C)C)c2c1[N+](=O)[O-]
